Measurements taken from US9550796B2, “Pyrrolopyrrolone derivatives and their use as BET inhibitors” (NOVARTIS AG, priority 2013, dated 2017).
One block for each molecule: values may come before it.

Columns and labels:
[1] = target: CREBBP (Homo sapiens (Human), UniProt Q92793); assay: AlphaScreen in-vitro binding assay for CREBBP; conditions: 324 nM His-CREBBP (1081-1197), acetyl-histone H4 (AcK 5, 8, 12) peptide
Method in brief: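 IC50 values were derived by non-linear regression of percent inhibition across 8 compound concentrations. Protein was His-tagged CREBBP bromodomain (1081-1197), peptide acetyl-histone H4 (AcK 5, 8, 12), in HEPES pH 7.5 buffer. Read-out was AlphaScreen with Ni-chelate acceptor and streptavidin donor beads, 35 min at 30° C then 60 min at RT.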

[2] = test system: K-562; assay: Cell growth inhibition assay (CellTiter-Glo), K-562; assay type: cell-based, human; conditions: K-562 cells, 4 days; for GI50: Homo sapiens, K562, 96 h, half-maximal growth inhibition; for K-562 TGI: total growth inhibition
Method in brief: (§1)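 Seed cells in their own media; add compound as 3-fold dilutions from 10 μM (0.1% DMSO final). Incubate 4 days at 37 °C, 5% CO2, then add CTG and read luminescence. Subtract no-cell background, correct to a day 0 plate, and fit IC50 and TGI.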

[3] = test system: MV-4-11; assay: Cell growth inhibition assay (CellTiter-Glo), MV-4-11; assay type: cell-based, human; conditions: MV-4-11 cells, 4 days; for GI50: Homo sapiens, MV4-11, 96 h, half-maximal growth inhibition; for MV-4-11 TGI: total growth inhibition
Method in brief: as §1

[4] = test system: THP-1; assay: Cell growth inhibition assay (CellTiter-Glo), THP-1; assay type: cell-based, human; conditions: THP-1 cells, 4 days; for GI50: Homo sapiens, 96 h, half-maximal growth inhibition; for THP-1 TGI: total growth inhibition
Method in brief: as §1

[5] = target: BRD2 (Homo sapiens (Human), UniProt P25440); assay: TR-FRET in-vitro binding assay for BRD2; conditions: 45 nM His-Brd2(60-472), acetyl-histone H4 (AcK 5, 8, 12, 16) peptide
Chain of BRD2 (P25440 60-472): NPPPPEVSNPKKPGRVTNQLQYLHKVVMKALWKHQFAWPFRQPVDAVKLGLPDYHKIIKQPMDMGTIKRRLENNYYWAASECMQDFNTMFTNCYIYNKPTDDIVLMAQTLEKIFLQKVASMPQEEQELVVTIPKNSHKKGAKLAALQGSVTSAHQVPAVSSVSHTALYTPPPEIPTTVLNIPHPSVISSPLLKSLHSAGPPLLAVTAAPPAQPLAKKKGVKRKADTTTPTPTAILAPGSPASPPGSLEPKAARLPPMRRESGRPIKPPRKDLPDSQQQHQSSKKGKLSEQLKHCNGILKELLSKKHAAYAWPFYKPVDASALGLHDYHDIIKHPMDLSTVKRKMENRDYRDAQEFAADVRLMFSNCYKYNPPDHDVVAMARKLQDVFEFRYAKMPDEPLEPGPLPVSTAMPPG
Method in brief: (§2)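 TR-FRET binding read after 35 min incubation at 30° C. Compounds dispensed from 90% DMSO solutions and tested at 8 concentrations in a 13.55 μL total reaction volume.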

[6] = target: BRD4 (Homo sapiens (Human), UniProt O60885); assay: TR-FRET in-vitro binding assay for BRD4; conditions: 45 nM His-Brd4(44-477), acetyl-histone H4 (AcK 5, 8, 12, 16) peptide
Method in brief: as §2

[7] = target: BRD3 (Homo sapiens (Human), UniProt Q15059); assay: TR-FRET in-vitro binding assay for BRD3; conditions: 45 nM His-Brd3(20-477), acetyl-histone H4 (AcK 5, 8, 12, 16) peptide
Chain of BRD3 (Q15059 20-477): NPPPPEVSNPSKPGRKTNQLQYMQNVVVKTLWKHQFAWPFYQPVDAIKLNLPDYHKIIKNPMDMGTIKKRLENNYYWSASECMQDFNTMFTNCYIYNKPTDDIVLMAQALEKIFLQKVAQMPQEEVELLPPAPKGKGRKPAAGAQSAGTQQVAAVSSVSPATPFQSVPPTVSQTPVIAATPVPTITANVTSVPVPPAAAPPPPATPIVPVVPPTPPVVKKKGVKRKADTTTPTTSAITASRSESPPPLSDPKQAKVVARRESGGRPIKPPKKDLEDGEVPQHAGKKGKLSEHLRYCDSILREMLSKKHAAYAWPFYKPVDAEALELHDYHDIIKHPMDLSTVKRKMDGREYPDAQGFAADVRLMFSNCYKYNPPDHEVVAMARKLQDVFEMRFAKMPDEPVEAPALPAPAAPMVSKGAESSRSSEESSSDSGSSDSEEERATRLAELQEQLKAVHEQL
Method in brief: as §2

Chain of CREBBP (Q92793 1081-1197): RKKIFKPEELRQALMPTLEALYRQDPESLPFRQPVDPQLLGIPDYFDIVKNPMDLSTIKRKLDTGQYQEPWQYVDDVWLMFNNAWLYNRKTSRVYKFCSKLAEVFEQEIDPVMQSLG

Compound: CCOC(=O)n1ccc2c1C(c1ccc(Cl)cc1)N(c1cc(C)c3nnc(C)n3c1)C2=O (centres unmarked) [Example 22, Ethyl 6-(4-chlorophenyl)-5-(3,8-dimethyl-[1,2,4]triazolo[4,3-a]pyridin-6-yl)-4-oxo-5,6-dihydropyrrolo[3,4-b]pyrrole-1(4H)-carboxylate]
IC50 [1]: 12.5 µM
GI50 [2]: 226 nM
K-562 TGI [2]: >10 µM
GI50 [3]: 46.8 nM
MV-4-11 TGI [3]: 0.08615 µM
GI50 [4]: 60.1 nM
THP-1 TGI [4]: 0.13 µM
IC50 [5]: 38 nM
IC50 [6]: 25 nM
IC50 [7]: 26 nM

Compound: CNC(=O)n1ccc2c1C(c1ccc(Cl)cc1)N(c1cc(C)c3nnc(C)n3c1)C2=O (centres unmarked) [Example 23, 6-(4-chlorophenyl)-5-(3,8-dimethyl-[1,2,4]triazolo[4,3-a]pyridin-6-yl)-N-methyl-4-oxo-5,6-dihydropyrrolo[3,4-b]pyrrole-1(4H)-carboxamide]
IC50 [1]: 4.2 µM
GI50 [2]: 206 nM
K-562 TGI [2]: >10 µM
GI50 [3]: 29 nM
MV-4-11 TGI [3]: 0.0547 µM
GI50 [4]: 39.2 nM
THP-1 TGI [4]: 0.1017 µM
IC50 [5]: 85 nM
IC50 [6]: 52 nM
IC50 [7]: 39 nM

Compound: Cc1cc(N2C(=O)c3ccn(C(=O)N(C)C)c3C2c2ccc(Cl)cc2)cn2c(C)nnc12 (centres unmarked) [Example 24, 6-(4-chlorophenyl)-5-(3,8-dimethyl-[1,2,4]triazolo[4,3-a]pyridin-6-yl)-N,N-dimethyl-4-oxo-5,6-dihydropyrrolo[3,4-b]pyrrole-1(4H)-carboxamide]
IC50 [1]: 13.3 µM
GI50 [2]: 527 nM
K-562 TGI [2]: >10 µM
GI50 [3]: 92.8 nM
MV-4-11 TGI [3]: 0.152 µM
GI50 [4]: 96.4 nM
THP-1 TGI [4]: 0.2675 µM
IC50 [5]: 220 nM
IC50 [6]: 80 nM
IC50 [7]: 87 nM

Compound: COc1ncccc1-c1cc2c(n1C)C(c1ccc(Cl)cc1)N(c1cc(C)c3nnc(C)n3c1)C2=O (centres unmarked) [Example 30, 6-(4-chlorophenyl)-5-(3,8-dimethyl-[1,2,4]triazolo[4,3-a]pyridin-6-yl)-2-(2-methoxypyridin-3-yl)-1-methyl-5,6-dihydropyrrolo[3,4-b]pyrrol-4(1H)-one]
IC50 [1]: 1.3 µM
GI50 [2]: 57.2 nM
K-562 TGI [2]: >10 µM
GI50 [3]: 11.2 nM
MV-4-11 TGI [3]: 0.0213 µM
GI50 [4]: 19.8 nM
THP-1 TGI [4]: 0.03905 µM
IC50 [5]: 50 nM
IC50 [6]: 40 nM
IC50 [7]: 47 nM

Compound: Cc1cc(N2C(=O)c3cc(C4=CCOCC4)n(C)c3C2c2ccc(Cl)cc2)cn2c(C)nnc12 (centres unmarked) [Example 31, 6-(4-chlorophenyl)-2-(3,6-dihydro-2H-pyran-4-yl)-5-(3,8-dimethyl-[1,2,4]triazolo[4,3-a]pyridin-6-yl)-1-methyl-5,6-dihydropyrrolo[3,4-b]pyrrol-4(1H)-one]
IC50 [1]: 3.1 µM
GI50 [2]: 57.2 nM
K-562 TGI [2]: >10 µM
GI50 [3]: 13.3 nM
MV-4-11 TGI [3]: 0.0237 µM
GI50 [4]: 30.9 nM
THP-1 TGI [4]: 0.0525 µM
IC50 [5]: 62 nM
IC50 [6]: 36 nM
IC50 [7]: 47 nM

Compound: Cc1cc(N2C(=O)c3c(C4CC4)cn(C)c3C2c2ccc(Cl)cc2)cn(C)c1=O (centres unmarked) [Example 37, 6-(4-chlorophenyl)-3-cyclopropyl-5-(1,5-dimethyl-6-oxo-1,6-dihydropyridin-3-yl)-1-methyl-5,6-dihydropyrrolo[3,4-b]pyrrol-4(1H)-one]
IC50 [1]: 1.9 µM
GI50 [2]: 180 nM
K-562 TGI [2]: >10 µM
GI50 [3]: 21.3 nM
MV-4-11 TGI [3]: 0.03855 µM
GI50 [4]: 44.9 nM
THP-1 TGI [4]: 0.09815 µM
IC50 [5]: 38 nM
IC50 [6]: 37 nM
IC50 [7]: 32 nM

The next lines start with results.

IC50 [1]: 5.1 µM
GI50 [2]: 246 nM
GI50 [3]: 45.2 nM
GI50 [4]: 63.3 nM
IC50 [5]: 82 nM
IC50 [6]: 47 nM
IC50 [7]: 53 nM
Compound: Cc1cc(N2C(=O)c3cc[nH]c3C2c2ccc(Cl)cc2)cn2c(C)nnc12 (centres unmarked) [Example 21, 6-(4-chlorophenyl)-5-(3,8-dimethyl-[1,2,4]triazolo[4,3-a]pyridin-6-yl)-5,6-dihydropyrrolo[3,4-b]pyrrol-4(1H)-one]
K-562 TGI [2]: >10 µM
MV-4-11 TGI [3]: 0.08105 µM
THP-1 TGI [4]: 0.178 µM

IC50 [1]: 4.4 µM
GI50 [2]: 156 nM
GI50 [3]: 36.8 nM
GI50 [4]: 39.2 nM
IC50 [5]: 38 nM
IC50 [6]: 17 nM
IC50 [7]: 23 nM
Compound: Cc1cc(N2C(=O)c3cc(-c4cccn(C)c4=O)[nH]c3C2c2ccc(Cl)cc2)cn2c(C)nnc12 (centres unmarked) [Example 25, 6-(4-chlorophenyl)-5-(3,8-dimethyl-[1,2,4]triazolo[4,3-a]pyridin-6-yl)-2-(1-methyl-2-oxo-1,2-dihydropyridin-3-yl)-5,6-dihydropyrrolo[3,4-b]pyrrol-4(1H)-one]
K-562 TGI [2]: >10 µM
MV-4-11 TGI [3]: 0.05815 µM
THP-1 TGI [4]: 0.0949 µM

IC50 [1]: 4 µM
GI50 [2]: 839 nM
GI50 [3]: 70 nM
GI50 [4]: 136 nM
IC50 [5]: 78 nM
IC50 [6]: 60 nM
IC50 [7]: 52 nM
Compound: Cc1cc(N2C(=O)c3cc(-c4cccnc4O)[nH]c3C2c2ccc(Cl)cc2)cn2c(C)nnc12 (centres unmarked) [Example 26, 6-(4-chlorophenyl)-5-(3,8-dimethyl-[1,2,4]triazolo[4,3-a]pyridin-6-yl)-2-(2-hydroxypyridin-3-yl)-5,6-dihydropyrrolo[3,4-b]pyrrol-4(1H)-one]
K-562 TGI [2]: >10 µM
MV-4-11 TGI [3]: 0.1185 µM
THP-1 TGI [4]: 0.34 µM

IC50 [1]: 1.9 µM
GI50 [2]: 55.6 nM
GI50 [3]: 12.8 nM
GI50 [4]: 19.2 nM
IC50 [5]: 20 nM
IC50 [6]: 16 nM
IC50 [7]: 21 nM
Compound: Cc1cn(C)c2c1C(=O)N(c1cc(C)c3nnn(C)c3c1)C2c1ccc(Cl)cc1 (centres unmarked) [Example 28, 6-(4-chlorophenyl)-5-(1,4-dimethyl-1H-benzo[d][1,2,3]triazol-6-yl)-1,3-dimethyl-5,6-dihydropyrrolo[3,4-b]pyrrol-4(1H)-one]
K-562 TGI [2]: >10 µM
MV-4-11 TGI [3]: 0.02635 µM
THP-1 TGI [4]: 0.03815 µM

IC50 [1]: > 37 µM
GI50 [2]: 430 nM
GI50 [3]: 111 nM
GI50 [4]: 174 nM
IC50 [5]: 160 nM
IC50 [6]: 110 nM
IC50 [7]: 100 nM
Compound: Cc1cn(C)c2c1C(=O)N(c1cc(C)c3nnn(C)c3n1)C2c1ccc(Cl)cc1 (centres unmarked) [Example 32, 6-(4-chlorophenyl)-5-(3,7-dimethyl-3H-[1,2,3]triazolo[4,5-b]pyridin-5-yl)-1,3-dimethyl-5,6-dihydropyrrolo[3,4-b]pyrrol-4(1H)-one]
K-562 TGI [2]: >10 µM
MV-4-11 TGI [3]: 0.2035 µM
THP-1 TGI [4]: 0.343 µM

IC50 [1]: 1.2 µM
GI50 [2]: 550 nM
GI50 [3]: 78.6 nM
GI50 [4]: 128 nM
IC50 [5]: 280 nM
IC50 [6]: 305 nM
IC50 [7]: 220 nM
Compound: COc1nccc(-c2cc3c(n2C)C(c2ccc(Cl)cc2)N(c2cc(Cl)c(=O)n(C)c2)C3=O)n1 (centres unmarked) [Example 39, 5-(5-chloro-1-methyl-6-oxo-1,6-dihydropyridin-3-yl)-6-(4-chlorophenyl)-2-(2-methoxypyrimidin-4-yl)-1-methyl-5,6-dihydropyrrolo[3,4-b]pyrrol-4(1H)-one]
K-562 TGI [2]: >10 µM
MV-4-11 TGI [3]: 0.105 µM
THP-1 TGI [4]: 0.238 µM

IC50 [1]: 0.365 µM
GI50 [2]: 326 nM
GI50 [3]: 83.9 nM
GI50 [4]: 91.9 nM
IC50 [5]: 72.5 nM
IC50 [6]: 78 nM
IC50 [7]: 54 nM
Compound: COc1ncc(-c2cc3c(n2C)C(c2ccc(Cl)cc2)N(c2cc(Cl)c(=O)n(C)c2)C3=O)cn1 (centres unmarked) [Example 40, 5-(5-chloro-1-methyl-6-oxo-1,6-dihydropyridin-3-yl)-6-(4-chlorophenyl)-2-(2-methoxypyrimidin-5-yl)-1-methyl-5,6-dihydropyrrolo[3,4-b]pyrrol-4(1H)-one]
K-562 TGI [2]: >10 µM
MV-4-11 TGI [3]: 0.127 µM
THP-1 TGI [4]: 0.137 µM

IC50 [1]: 0.535 µM
GI50 [2]: 517 nM
GI50 [3]: 78.7 nM
GI50 [4]: 167 nM
IC50 [5]: 83 nM
IC50 [6]: 85 nM
IC50 [7]: 65.5 nM
Compound: Cn1c(-c2ccn(C)c(=O)c2)cc2c1C(c1ccc(Cl)cc1)N(c1cc(Cl)c(=O)n(C)c1)C2=O (centres unmarked) [Example 41, 5-(5-chloro-1-methyl-6-oxo-1,6-dihydropyridin-3-yl)-6-(4-chlorophenyl)-1-methyl-2-(1-methyl-2-oxo-1,2-dihydropyridin-4-yl)-5,6-dihydropyrrolo[3,4-b]pyrrol-4(1H)-one]
K-562 TGI [2]: >10 µM
MV-4-11 TGI [3]: 0.128 µM
THP-1 TGI [4]: 0.307 µM
